This note sets out measurements from patent publication US6964949B2, “Pharmaceutical compositions for promoting the growth of gram-positive bacilli and increasing the acidity in the vagina and the use thereof” (Shanghai Jiao Da Onlly Co., Ltd., priority 2000, dated 2005).

Format in all cases: cell-based
Conditions in all cases: 10.0% sucrose, 1.0% yeast extract, 1.6% xanthan gum, pH 5.0, anaerobic, 37° C.

For one assay, the system named is Gram-negative bacilli. The assay is described as follows: Experimental Example 1: bacterial vaginosis specimen suspension cultured in the composition, Gram smear. Here is the method:
(§1) • (1) The preparation of the composition: Sucrose was used to prepare the following composition according to the method mentioned above: sucrose 10.0% (W/V), yeast extract 1.0% (W/V), Xanthan gum 1.6% (W/V), pH 5.0; then filled the composition into the tubes after sterilization, with each tube containing 5 ml, and pre-reduced for use. • (2) Specimen suspension: Vaginal secretion was taken from one of the patients suffering from typical bacterial vaginosis with a cotton swab, then the swab was washed in 2 ml sterilized Trypcase-soy Broth immediately, and thus the specimen suspension was ready. […] The tubes were placed in an incubator for cultivation, at 37° C., anaerobically. Then, culture samples were taken from the tubes at 10 hours and 24 hours later respectively. The Gram smears of the samples were observed and the pH values of the samples were measured.

The subject of a further assay is Gram-negative cocci. The assay is described as above. The procedure:
as §1

The subject of another assay is Gram-positive bacilli. The assay is described as above. The procedure:
as §1

Another assay has as its system Gram-positive cocci. Described as above. The procedure:
as §1

Assay [1] deals with vaginal secretion specimen of a patient suffering from typical bacterial vaginosis. Nature of the assay: Experimental Example 1: pH of culture samples (production of acids). The procedure: as §1

As to `OC[C@H]1O[C@@](CO)(O[C@H]2O[C@H](CO)[C@@H](O)[C@H](O)[C@H]2O)[C@@H](O)[C@@H]1O` [Sucrose, sucrose], the “Bacteria G − b (Gram-negative bacilli), 10 hours-culture” value in the assay on Gram-negative bacilli (10 hours) is “G − b, ++ (About 10-99 bacteria per field of vision under oil-immersion lens)”. Moreover, the “Bacteria G − b (Gram-negative bacilli), 24 hours-culture” value in the assay on Gram-negative bacilli (24 hours) is given as “G − b, ++ (About 10-99 bacteria per field of vision under oil-immersion lens)”. Also, in the assay on Gram-negative cocci, the “Bacteria G − c (Gram-negative cocci), 24 hours-culture” value was “G − c, + (1-9 bacteria per field of vision under oil-immersion lens)”. Further, in the assay on Gram-positive bacilli (10 hours), the “Bacteria G + b (Gram-positive bacilli), 10 hours-culture” value is on record as “G + b, +++ (About 100 bacteria or more per field vision under oil-immersion lens, even uncountable)”. Besides, the “Bacteria G + b (Gram-positive bacilli), 24 hours-culture” value in the assay on Gram-positive bacilli (24 hours) was “G + b, ++++”. Moreover, the “Bacteria G + c (Gram-positive cocci), 24 hours-culture” value in the assay with Gram-positive cocci is on record as “G + C, ++ (About 10-99 bacteria per field of vision under oil-immersion lens)”. For the same compound, the “pH, 10 hours-culture” value in assay [1] (10 hours) is listed as 5.0. For the same compound, the “pH, 24 hours-culture” value in assay [1] (24 hours) came out at 4.0.
